Assay results taken from patent US8574563B2 (Bristol-Myers Squibb Company, priority 2006, dated 2013).
pEC50: −log10 of the molar value.

Test system: HCV 1b-377-neo replicon cells
Assay: HCV replicon assay, HCV 1b-377-neo replicon cells (1b FRET)
Type: cell-based, Hepatitis C virus genotype 1b
Details: Hepatitis C virus, HCV 1b-377-neo replicon cells; HCV 1b genotype; read-out: EC50 range against HCV 1b (Table 2, Range)
In short: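 FRET-based replicon assay in HCV 1b-377-neo cells, including a comparison line carrying the NS5A Y2065H mutation that confers resistance to a reference compound.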

SMILES	pEC50
COC(=O)N[C@@H](Cc1cscn1)C(=O)N1CCC[C@H]1c1ncc(-c2ccc(-c3ccc(-c4cnc([C@@H]5CCCN5C(=O)[C@@H](NC(=O)OC)[C@@H](C)OC)[nH]4)cc3)cc2)[nH]1 [cj-78, methyl ((1S)-2-((2S)-2-(5-(4′-(2-((2S)-1-((2S,3R)-3-methoxy-2-((methoxycarbonyl)amino)butanoyl)-2-pyrrolidinyl)-1H-imidazol-5-yl)-4-biphenylyl)-1H-imidazol-2-yl)-1-pyrrolidinyl)-2-oxo-1-(1,3-thiazol-4-ylmethyl)ethyl)carbamate]	9.00 to 12.00
COC(=O)N[C@@H](Cc1cscn1)C(=O)N1CCC[C@H]1c1ncc(-c2ccc(-c3ccc(-c4cnc([C@@H]5CCCN5C(=O)[C@@H](NC(=O)OC)C(C)C)[nH]4)cc3)cc2)[nH]1 [cj-79, methyl ((1S)-1-(((2S)-2-(5-(4′-(2-((2S)-1-((2S)-2-((methoxycarbonyl)amino)-3-(1,3-thiazol-4-yl)propanoyl)-2-pyrrolidinyl)-1H-imidazol-5-yl)-4-biphenylyl)-1H-imidazol-2-yl)-1-pyrrolidinyl)carbonyl)-2-methylpropyl)carbamate]	9.00 to 12.00
CCN(CC)[C@@H](C(=O)N1CCC[C@H]1c1ncc(-c2ccc(-c3ccc(-c4cnc([C@@H]5CCCN5C(=O)[C@H](Cc5cscn5)NC(=O)OC)[nH]4)cc3)cc2)[nH]1)c1ccccc1 [cj-80, methyl ((1S)-2-((2S)-2-(5-(4′-(2-((2S)-1-((2R)-2-(diethylamino)-2-phenylacetyl)-2-pyrrolidinyl)-1H-imidazol-5-yl)-4-biphenylyl)-1H-imidazol-2-yl)-1-pyrrolidinyl)-2-oxo-1-(1,3-thiazol-4-ylmethyl)ethyl)carbamate]	9.00 to 12.00
COC(=O)N[C@@H](C)C(=O)N1CCC[C@H]1c1ncc(-c2ccc(-c3ccc(-c4cnc([C@@H]5CCCN5C(=O)[C@H](Cc5cscn5)NC(=O)OC)[nH]4)cc3)cc2)[nH]1 [cj-81, methyl ((1S)-2-((2S)-2-(5-(4′-(2-((2S)-1-(N-(methoxycarbonyl)-L-alanyl)-2-pyrrolidinyl)-1H-imidazol-5-yl)-4-biphenylyl)-1H-imidazol-2-yl)-1-pyrrolidinyl)-2-oxo-1-(1,3-thiazol-4-ylmethyl)ethyl)carbamate]	9.00 to 12.00
COC(=O)N[C@@H](Cc1cccnc1)C(=O)N1CCC[C@H]1c1ncc(-c2ccc(-c3ccc(-c4cnc([C@@H]5CCCN5C(=O)[C@@H](NC(=O)OC)[C@@H](C)OC)[nH]4)cc3)cc2)[nH]1 [cj-82, methyl ((1S)-2-((2S)-2-(5-(4′-(2-((2S)-1-((2S,3R)-3-methoxy-2-((methoxycarbonyl)amino)butanoyl)-2-pyrrolidinyl)-1H-imidazol-5-yl)-4-biphenylyl)-1H-imidazol-2-yl)-1-pyrrolidinyl)-2-oxo-1-(3-pyridinylmethyl)ethyl)carbamate]	9.00 to 12.00
COC(=O)N[C@@H](Cc1cccnc1)C(=O)N1CCC[C@H]1c1ncc(-c2ccc(-c3ccc(-c4cnc([C@@H]5CCCN5C(=O)[C@@H](NC(=O)OC)C(C)C)[nH]4)cc3)cc2)[nH]1 [cj-83, methyl ((1S)-2-((2S)-2-(5-(4′-(2-((2S)-1-((2S)-2-((methoxycarbonyl)amino)-3-methylbutanoyl)-2-pyrrolidinyl)-1H-imidazol-5-yl)-4-biphenylyl)-1H-imidazol-2-yl)-1-pyrrolidinyl)-2-oxo-1-(3-pyridinylmethyl)ethyl)carbamate]	9.00 to 12.00
CCN(CC)[C@@H](C(=O)N1CCC[C@H]1c1ncc(-c2ccc(-c3ccc(-c4cnc([C@@H]5CCCN5C(=O)[C@H](Cc5cccnc5)NC(=O)OC)[nH]4)cc3)cc2)[nH]1)c1ccccc1 [cj-84, methyl ((1S)-2-((2S)-2-(5-(4′-(2-((2S)-1-((2R)-2-(diethylamino)-2-phenylacetyl)-2-pyrrolidinyl)-1H-imidazol-5-yl)-4-biphenylyl)-1H-imidazol-2-yl)-1-pyrrolidinyl)-2-oxo-1-(3-pyridinylmethyl)ethyl)carbamate]	9.00 to 12.00
COC(=O)N[C@@H](C)C(=O)N1CCC[C@H]1c1ncc(-c2ccc(-c3ccc(-c4cnc([C@@H]5CCCN5C(=O)[C@H](Cc5cccnc5)NC(=O)OC)[nH]4)cc3)cc2)[nH]1 [cj-85, methyl ((1S)-2-((2S)-2-(5-(4′-(2-((2S)-1-(N-(methoxycarbonyl)-L-alanyl)-2-pyrrolidinyl)-1H-imidazol-5-yl)-4-biphenylyl)-1H-imidazol-2-yl)-1-pyrrolidinyl)-2-oxo-1-(3-pyridinylmethyl)ethyl)carbamate]	9.00 to 12.00
COC(=O)N[C@@H]1CC[C@H](C(=O)N2CCC[C@H]2c2ncc(-c3ccc(-c4ccc(-c5cnc([C@@H]6CCCN6C(=O)[C@@H](NC(=O)OC)[C@@H](C)OC)[nH]5)cc4)cc3)[nH]2)C1 [cj-86, methyl ((1R,3S)-3-(((2S)-2-(5-(4′-(2-((2S)-1-((2S)-3-methoxy-2-((methoxycarbonyl)amino)butanoyl)-2-pyrrolidinyl)-1H-imidazol-5-yl)-4-biphenylyl)-1H-imidazol-2-yl)-1-pyrrolidinyl)carbonyl)cyclopentyl)carbamate]	9.00 to 12.00
COC(=O)N[C@@H](Cc1ccncc1)C(=O)N1CCC[C@H]1c1ncc(-c2ccc(-c3ccc(-c4cnc([C@@H]5CCCN5C(=O)[C@@H](NC(=O)OC)[C@@H](C)OC)[nH]4)cc3)cc2)[nH]1 [cj-87, methyl ((1S)-2-((2S)-2-(5-(4′-(2-((2S)-1-((2S,3R)-3-methoxy-2-((methoxycarbonyl)amino)butanoyl)-2-pyrrolidinyl)-1H-imidazol-5-yl)-4-biphenylyl)-1H-imidazol-2-yl)-1-pyrrolidinyl)-2-oxo-1-(4-pyridinylmethyl)ethyl)carbamate]	9.00 to 12.00
COC(=O)N[C@@H](Cc1ccncc1)C(=O)N1CCC[C@H]1c1ncc(-c2ccc(-c3ccc(-c4cnc([C@@H]5CCCN5C(=O)[C@@H](NC(=O)OC)C(C)C)[nH]4)cc3)cc2)[nH]1 [cj-88, methyl ((1S)-2-((2S)-2-(5-(4′-(2-((2S)-1-((2S)-2-((methoxycarbonyl)amino)-3-methylbutanoyl)-2-pyrrolidinyl)-1H-imidazol-5-yl)-4-biphenylyl)-1H-imidazol-2-yl)-1-pyrrolidinyl)-2-oxo-1-(4-pyridinylmethyl)ethyl)carbamate]	9.00 to 12.00
CCN(CC)[C@@H](C(=O)N1CCC[C@H]1c1ncc(-c2ccc(-c3ccc(-c4cnc([C@@H]5CCCN5C(=O)[C@H](Cc5ccncc5)NC(=O)OC)[nH]4)cc3)cc2)[nH]1)c1ccccc1 [cj-89, methyl ((1S)-2-((2S)-2-(5-(4′-(2-((2S)-1-((2R)-2-(diethylamino)-2-phenylacetyl)-2-pyrrolidinyl)-1H-imidazol-5-yl)-4-biphenylyl)-1H-imidazol-2-yl)-1-pyrrolidinyl)-2-oxo-1-(4-pyridinylmethyl)ethyl)carbamate]	9.00 to 12.00
COC(=O)N[C@@H](C)C(=O)N1CCC[C@H]1c1ncc(-c2ccc(-c3ccc(-c4cnc([C@@H]5CCCN5C(=O)[C@H](Cc5ccncc5)NC(=O)OC)[nH]4)cc3)cc2)[nH]1 [cj-90, methyl ((1S)-2-((2S)-2-(5-(4′-(2-((2S)-1-(N-(methoxycarbonyl)-L-alanyl)-2-pyrrolidinyl)-1H-imidazol-5-yl)-4-biphenylyl)-1H-imidazol-2-yl)-1-pyrrolidinyl)-2-oxo-1-(4-pyridinylmethyl)ethyl)carbamate]	9.00 to 12.00
COC(=O)N[C@@H](Cc1ccc(OP(=O)(O)OC)cc1)C(=O)N1CCC[C@H]1c1ncc(-c2ccc(-c3ccc(-c4cnc([C@@H]5CCCN5C(=O)[C@@H](NC(=O)OC)C(C)C)[nH]4)cc3)cc2)[nH]1 [cj-91, methyl ((1S)-1-(((2S)-2-(5-(4′-(2-((2S)-1-(O-(hydroxy(methoxy)phosphoryl)-N-(methoxycarbonyl)-L-tyrosyl)-2-pyrrolidinyl)-1H-imidazol-5-yl)-4-biphenylyl)-1H-imidazol-2-yl)-1-pyrrolidinyl)carbonyl)-2-methylpropyl)carbamate]	9.00 to 12.00
COC(=O)N[C@@H](Cc1ccc(OP(=O)(O)OC)cc1)C(=O)N1CCC[C@H]1c1ncc(-c2ccc(-c3ccc(-c4cnc([C@@H]5CCCN5C(=O)[C@@H](NC(=O)OC)[C@@H](C)OC)[nH]4)cc3)cc2)[nH]1 [cj-92, methyl ((1S,2R)-1-(((2S)-2-(5-(4′-(2-((2S)-1-(O-(hydroxy(methoxy)phosphoryl)-N-(methoxycarbonyl)-L-tyrosyl)-2-pyrrolidinyl)-1H-imidazol-5-yl)-4-biphenylyl)-1H-imidazol-2-yl)-1-pyrrolidinyl)carbonyl)-2-methoxypropyl)carbamate]	7.00 to 9.00
COC(=O)N[C@H](C(=O)N1CCC[C@H]1c1ncc(-c2ccc(-c3ccc(-c4cnc([C@@H]5CCCN5C(=O)[C@H]5CCCC[C@H]5NC(=O)OC)[nH]4)cc3)cc2)[nH]1)C(C)C [cj-93, methyl ((1S)-1-(((2S)-2-(5-(4′-(2-((2S)-1-(((1S,2R)-2-((methoxycarbonyl)amino)cyclohexyl)carbonyl)-2-pyrrolidinyl)-1H-imidazol-5-yl)-4-biphenylyl)-1H-imidazol-2-yl)-1-pyrrolidinyl)carbonyl)-2-methylpropyl)carbamate]	9.00 to 12.00
CCN(CC)[C@@H](C(=O)N1CCC[C@H]1c1ncc(-c2ccc(-c3ccc(-c4cnc([C@@H]5CCCN5C(=O)[C@H]5CCCC[C@H]5NC(=O)OC)[nH]4)cc3)cc2)[nH]1)c1ccccc1 [cj-94, methyl ((1R,2S)-2-(((2S)-2-(5-(4′-(2-((2S)-1-((2R)-2-(diethylamino)-2-phenylacetyl)-2-pyrrolidinyl)-1H-imidazol-5-yl)-4-biphenylyl)-1H-imidazol-2-yl)-1-pyrrolidinyl)carbonyl)cyclohexyl)carbamate]	9.00 to 12.00
COC(=O)N[C@@H](C(=O)N1CCC[C@H]1c1ncc(-c2ccc(-c3ccc(-c4cnc([C@@H]5CCCN5C(=O)[C@H]5CCCC[C@H]5NC(=O)OC)[nH]4)cc3)cc2)[nH]1)c1ccccc1 [cj-95, methyl ((1R)-2-((2S)-2-(5-(4′-(2-((2S)-1-(((1S,2R)-2-((methoxycarbonyl)amino)cyclohexyl)carbonyl)-2-pyrrolidinyl)-1H-imidazol-5-yl)-4-biphenylyl)-1H-imidazol-2-yl)-1-pyrrolidinyl)-2-oxo-1-phenylethyl)carbamate]	9.00 to 12.00
